In patent US6958145B2, “Synthesis of cyclic compounds” (Unisearch Limited, priority 2000, dated 2005):

Key:
[1] = tested on: two-component signal transduction; experiment: Taz-1 assay, two-component signal transduction; type: cell-based, E. coli; settings: beta-galactosidase readout
Protocol: The Taz-assay carried out according to the method of Jin and Inouye (1993) with the following alterations. E. coli RU1012 (pYT0301) were grown overnight in M9 medium at 37° C. supplemented with 100 ug/ml ampicillin and 50 ug/ml kanamycin. This overnight culture was then used to inoculate 50 ml M9 medium in side-arm flasks which were then incubated at 37° C. and shaken at 180 rpm. The OD610 of the growing cultures was monitored regularly and when the OD610=0.2 the cultures were placed on ice. Aspartate was added to side-arm flasks to give a final concentration of 3 mM (aspartate stock solution made up in M9 salts).
The test compound or mixtures of compounds were dissolved in ethanol and added to cultures to give the required final concentrations. Negative controls were prepared with equal volumes of ethanol. Cultures were then placed in a 37° C. incubator and shaken for 4 hours (OD610 approximately 0.7) before being removed and put on ice. Samples were then removed for […]eta-galactosidase assays carried out according to the method of Miller (1972).

[2] = tested on: AI-2 activity; experiment: V. harveyi bioassay for the detection of AI-2 activity; type: cell-based; settings: V. harveyi BB170 luminescence
Protocol: The V. harveyi bioassay was performed as described previously (Surette and Bassler, 1998). The V. harveyi reporter strain BB170 was grown for 16 hours at 30° C. with shaking in AB medium. Cells were diluted 1:5,000 into 30° C. prewarmed AB medium and 90 ul of the diluted suspension was added to wells containing supernatant. Furanones were added to the wells to achieve the desired final concentrations and the final volume in each well was adjusted with sterile medium to 100 ul. Ten ul of V. harveyi BB152 (AI-1−, AI-2+) supernatant was used as a positive control and 10 ul of E. coli DH5α supernatant or sterile media was used as a negative control. […] The microtiter plates were incubated at 30° C. with shaking at 175 rpm. Hourly determinations of the total luminescence were quantified using the chemiluminescent setting on a Wallac (Gaithersburg, Md.) model 1450 Microbeta Plus liquid scintillation counter. The V. harveyi cell density was monitored by the use of a microplate reader (Bio-Rad, Hercules, Calif.). Activity is reported as the percentage of activity obtained from V. harveyi BB152 cell-free supernatant. While the absolute values of luminescence varied considerably between experiments, the pattern of results obtained was reproducible.

[3] = tested on: AHL mediated quorum sensing

Compound | 2 component (two-component signal transduction assay) [1] | AI-2 (AI-2 activity) [2] | AHL (inhibitor of AHL-mediated quorum sensing) [3]
CC1=CC(=C(Br)Br)OC1=O [compound 64] | No effect | 80% reduction | good
CC1=CC(=O)OC1(Br)C(Br)Br (stereo not shown) [compound 72] |  | 97% reduction | 
